Among the data in PubChem BioAssay AID624119 (National Center for Advancing Translational Sciences (NCATS), 2012) are inhibition values, retold here.

The target in the series is Cytochrome P450 2D6 (Homo sapiens) (UniProt P10635). The experiment in a line: qHTS Assay for Inhibitors of Bacillus subtilis Sfp phosphopantetheinyl transferase (PPTase): CYP 2D6. The settings on record: CYP2D6 inhibition, single concentration 3 uM; at 3 µM; active compounds read high. An excerpt: The covalent attachment of a phosphopantetheinyl (4'-PP) arm to a variety of synthases and other proteins is a key posttranslational protein modification. The 4'-PP is installed on the proteins post-translationally from coenzyme A (CoA) on a conserved serine residue by action of phosphopantetheinyl transferase (PPTase) enzymes. Phosphopantetheinylation is essential for synthase activity, and removal of the PPTase gene precludes natural product synthesis in microorganisms, or in the case of fatty acid biosynthesis, renders the organism unviable. PPTase enzymes belong to a distinct structural superfamily. Within bacteria, these enzymes are grouped into two classes based upon primary structure, the AcpS-Type and Sfp-Type PPTases.
Sfp-type PPTases, corresponding to an activator of surfactin production in Bacillus subtilis, are responsible for modifying type I polyketide and nonribosomal peptide synthases of prokaryotes. Sfp-type PPTases are responsible for the activation of a variety of pathogen-associated virulence factors. Among these compounds are toxins such as mycolactone from Mycobacterium ulcerans, siderophores such as vibriobactin from Vibrio cholerae or mycobactin from Mycobacterium tuberculosis, as well as the mycolic acids which form the waxy cell wall of Mycobacteria. The biosyntheses of these natural products are considered attractive targets for drug design. […]
A general note: Quantitative high-throughput screening tests each substance at several concentrations.

Chain of Cytochrome P450 2D6 (Homo sapiens) (P10635 whole entry, looked up): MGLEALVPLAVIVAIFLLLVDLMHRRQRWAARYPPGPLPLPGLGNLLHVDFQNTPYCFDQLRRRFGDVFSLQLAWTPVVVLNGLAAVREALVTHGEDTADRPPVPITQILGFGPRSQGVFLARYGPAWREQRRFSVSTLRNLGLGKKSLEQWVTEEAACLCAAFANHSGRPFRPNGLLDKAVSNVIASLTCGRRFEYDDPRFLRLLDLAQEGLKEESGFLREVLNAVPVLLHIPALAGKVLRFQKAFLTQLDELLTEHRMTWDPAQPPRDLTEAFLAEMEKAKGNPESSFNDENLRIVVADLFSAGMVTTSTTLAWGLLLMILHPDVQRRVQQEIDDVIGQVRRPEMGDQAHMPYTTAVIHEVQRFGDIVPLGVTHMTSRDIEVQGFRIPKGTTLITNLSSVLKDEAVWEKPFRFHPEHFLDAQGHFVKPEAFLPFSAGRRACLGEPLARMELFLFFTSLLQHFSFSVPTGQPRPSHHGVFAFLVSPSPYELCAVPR

As usually defined, the inhibition is the relative decrease from the control value, in per cent. `COc1ccnc(NC(=S)N2CCN(c3ncc(C(F)(F)F)cc3Cl)CC2)c1`: the inhibition was 25%.
